Results: US20160151389A1 (priority 2014, published 2016)

How the values were obtained:
COX-2 = COX-2 expression in LPS-activated BV-2 microglia cells (western blot); format: cell-based, mouse; conditions: for relative expression rate of COX-2, fold of that of the control group: LPS 150 ng/ml 24 hours, vehicle group 8.34±0.05-fold; for inhibition ratio of COX-2 expression: LPS 150 ng/ml
Experimental: (§1) BV-2 cells (i.e., a mouse microglial cell line) were cultured in DMEM at a concentration of 2×10^5 cells per mL of the DMEM at 37° C. with 5% CO2 for 16 hours, wherein the DMEM was supplemented with deactivated fetal bovine serum (FBS, 10%), penicillin G (100 units/ml)/streptomycin (100 μg/ml), L-glutamine (3.65 mM), 4-(2-hydroxyethyl)-1-piperazineethanesulfonic acid (HEPES, 18 mM) and NaHCO3 (23.57 mM). […] Then, BV-2 cells were activated by being treated with lipopolysaccharide (LPS, 150 ng/ml) for 24 hours. BV-2 cells were lysed by a cell lysis buffer and centrifuged.

ICH mouse model [1] = experiment: Neurobehavioral test in collagenase-induced ICH mouse model; format: in vivo; conditions: 48 hours after ICH; 30 mg/kg orally; minimum 3, maximum 18; ICH group 9.6±1.2
Experimental: Male C57B2/6J mice (each weighs about 23 to 28 g) were anesthetized with chloral hydrate (400 mg/kg), and then a 1 mm burr hole was drilled 2 mm lateral to the midline and 0.3 mm anterior to the bregma of each mouse. Type VII-S collagenase (0.02 unit dissolved in 1 μl saline) was infused into the area of the caudate/putamen at a rate of 0.2 μl/min for 5 minutes. After an additional period of 5 minutes, the burr hole was occluded. The mice were allowed to recover with a controlled heating lamp and a controlled heating pad (37° C.) and an ICH mouse model was obtained, hereinafter referred to as “ICH group.” Additionally, a pseudo-animal that was handled with the same mode but only infused with an equal volume of normal saline (NS) was obtained, hereinafter referred to as “NS group.”
At 30 minutes post-collagenase injection, ergostatrien-3β-ol suspended in a 0.5% (w/v) vehicle (e.g., carboxymethyl cellulose (CMC)) was orally administered to the mouse at a dosage of 30 mg/kg. […]
At 48 hours after ICH was induced by collagenase, three groups of mice mentioned in Example 4 (i.e., the “NS group,” “ICH group” and “ICH+ergostatrien-3β-ol group”) were analyzed by a neurobehavioral test, which includes six tests for spontaneous activity, symmetry in the movement of four limbs, forepaw outstretching, climbing, body proprioception, and response to vibrissae touch. […]

MMP-9 = experiment: MMP-9-mediated gelatinolysis in astrocytes induced by LPS or thrombin (zymographic analysis); format: cell-based, rat
Description: It has been known that the MMP-9-mediated gelatinolysis in astrocytes can be induced by LPS in a concentration dependent manner. The preparation and culture of astrocytes can be seen in “Preparation of separate astroglial and oligodendroglial cell cultures from rat cerebral tissue. J. Cell Biol. 85:890-902 (1980)” and “A potent antioxidant, lycopene, affords neuroprotection against microglia activation and focal cerebral ischemia in rats. In Vivo. 18:351-356 (2004)”, which are entirely incorporated hereinto by reference.
Astrocytes were respectively treated with vehicle (i.e., 0.2% ethanol) or ergostatrien-3β-ol (1, 5 and 10 μM) for 15 minutes, and then induced by LPS (500 ng/ml) or thrombin (10 units/ml) for 24 hours to induce the activation of MMP-9 in the astrocytes.

JNK MAPK = experiment: Phosphorylation of JNK MAPK in LPS-activated BV-2 microglia cells (western blot); format: cell-based, mouse; conditions: LPS-induced, vehicle group 5.5±0.3 fold
Experimental: as §1

ICH mouse model [2] = experiment: Brain water content in collagenase-induced ICH mouse model; format: in vivo; conditions: ipsilateral hemisphere, 48 hours after ICH; 30 mg/kg orally at 30 minutes post-collagenase; ICH group 81.2±0.3%, NS group 78.7±0.1
Experimental: Male C57B2/6J mice (each weighs about 23 to 28 g) were anesthetized with chloral hydrate (400 mg/kg), and then a 1 mm burr hole was drilled 2 mm lateral to the midline and 0.3 mm anterior to the bregma of each mouse. Type VII-S collagenase (0.02 unit dissolved in 1 μl saline) was infused into the area of the caudate/putamen at a rate of 0.2 μl/min for 5 minutes. After an additional period of 5 minutes, the burr hole was occluded. The mice were allowed to recover with a controlled heating lamp and a controlled heating pad (37° C.) and an ICH mouse model was obtained, hereinafter referred to as “ICH group.” Additionally, a pseudo-animal that was handled with the same mode but only infused with an equal volume of normal saline (NS) was obtained, hereinafter referred to as “NS group.” […]
After wet weights of the brain tissues of ipsilateral hemisphere and contralateral hemisphere of the “NS group,” “ICH group” and “ICH+ergostatrien-3β-ol group”) mice were measured, the brain tissues of the ipsilateral hemisphere and contralateral hemisphere were dried at 100° C. for 24 hours to obtain the dry weights. The brain water content was calculated by the following formula: (wet weight−dry weight)/wet weight×100%.

CC(C)[C@@H](C)/C=C/[C@@H](C)C1CCC2C3=CCC4C[C@@H](O)CC[C@]4(C)C3=CC[C@@]21C (stereo partly shown)
relative expression rate of COX-2, fold of that of the control group (COX-2; 0.5 μM pre-treatment 15 minutes): 4.80±0.75 fold
inhibition ratio of COX-2 expression (COX-2; 0.5 μM): 74%
relative expression rate of COX-2, fold of that of the control group (COX-2; 1 μM pre-treatment 15 minutes): 3.91±0.64 fold
inhibition ratio of COX-2 expression (COX-2; 1 μM): 94%
relative expression rate of COX-2, fold of that of the control group (COX-2; 5 μM pre-treatment 15 minutes): 1.92±0.98 fold
inhibition ratio of COX-2 expression (COX-2; 5 μM): 98%
relative expression rate of COX-2, fold of that of the control group (COX-2; 10 μM pre-treatment 15 minutes): 2.14±0.86 fold
inhibition ratio of COX-2 expression (COX-2; 10 μM): 106%
neurobehavioral score (ICH mouse model [1]): 13.4±1.1
MMP-9-mediated gelatinolysis, fold of that of the control group (MMP-9; LPS 500 ng/ml 24 hours, first of three values, 1 μM per b67 (b68 lists 0.5, 1, 5 or 10 μM), vehicle group 3.3±0.4-fold): 2.9±0.3 fold
MMP-9-mediated gelatinolysis, fold of that of the control group (MMP-9; LPS 500 ng/ml 24 hours, second of three values, 5 μM, vehicle group 3.3±0.4-fold): 2.5±0.3 fold
MMP-9-mediated gelatinolysis, fold of that of the control group (MMP-9; LPS 500 ng/ml 24 hours, third of three values, 10 μM, vehicle group 3.3±0.4-fold): 2.1±0.3 fold
MMP-9-mediated gelatinolysis, fold of that of the control group (MMP-9; thrombin 10 units/ml 24 hours, 5 μM, vehicle group 5.5±0.4-fold): 5.1±0.4 fold
MMP-9-mediated gelatinolysis, fold of that of the control group (MMP-9; thrombin 10 units/ml 24 hours, 10 μM, vehicle group 5.5±0.4-fold): 3.3±0.8 fold
phosphorylation level of JNK MAPK, fold of that of the control group (JNK MAPK; 0.5 μM pre-treatment): 5.5±0.9 fold
phosphorylation level of JNK MAPK, fold of that of the control group (JNK MAPK; 1 μM pre-treatment): 3.9±0.2 fold
phosphorylation level of JNK MAPK, fold of that of the control group (JNK MAPK; 5 μM pre-treatment): 3.5±0.6 fold
phosphorylation level of JNK MAPK, fold of that of the control group (JNK MAPK; 10 μM pre-treatment): 2.4±0.3 fold
brain water content (ICH mouse model [2]): 80.4±0.3%
